{
  "source": "patent US5686424A",
  "about": "“2-oxoethyl derivatives as immunosuppressants” (Miles Inc., priority 1995, dated 1997)",
  "note": "pIC50: −log10 of the molar value.",
  "data": [
    {"tested_on": "NF-AT", "assay": "NF-AT Inhibition Assay Directed β-Galactosidase Expression in FGL-5 cells", "format": "cell-based", "conditions": "50% inhibition of NF-AT directed β-galactosidase activity in FGL-5 cells stimulated with phorbol dibutyrate and ionomycin; TABLE 3", "procedure,_shortened": "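FGL-5 Jurkat cells (3 million cells/ml) carry NF-AT-site-driven lacZ. They were stimulated with phorbol dibutyrate plus ionomycin and incubated with compound 16-18 h at 37 °C, in duplicate wells with matched ethanol or DMSO vehicle controls. β-Galactosidase was read as fluorescence from 4-methylumbelliferyl-β-D-galactoside cleavage, giving percent inhibition.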", "values": [
      {"smiles": "O=C(NCc1ccccc1)[C@H](COCc1ccccc1)NC(=O)[C@@H]1CCCN1CC(=O)C12CC3CC(CC(C3)C1)C2", "note": "[Example 62, L-Serine-(O-Benzyl Ether), N-[1-(2-Adamantan-1-yl-2-Oxoethyl)-L-Prolyl] Benzylamide]", "pIC50": 4.89},
      {"smiles": "CC[C@H](C)[C@H](NC(=O)[C@@H]1CCCN1CC(=O)O[C@@H](c1ccccc1)C(C)C)C(=O)NCc1ccccc1", "note": "[Example 93, L-Isoleucine, N-[1-(2-(2-Methyl-1-(R)-Phenyl-1-Propoxy)-2-Oxoethyl)-L-Prolyl] Benzylamide]", "pIC50": 4.72},
      {"smiles": "CC[C@H](C)[C@H](NC(=O)[C@@H]1CCCN1CC(=O)C1CC2CC(C1C)C2(C)C)C(=O)NCc1ccccc1", "note": "(stereo partly drawn) [Example 41, L-Isoleucine, N-[1-[2-(2,6,6-Trimethyl-Bicyclo[3.1.1]hept-3-yl)-2-Oxoethyl]-L-Prolyl] Benzylamide]", "pIC50": 4.89},
      {"smiles": "CC[C@H](C)[C@H](NC(=O)[C@@H]1CCCN1CC(=O)NC12CC3CC(CC(C3)C1)C2)C(=O)NCc1ccccc1", "note": "[Example 39, L-Isoleucine, N-[1-(2-Aminoadamant-1-yl-2-oxoethyl)-L-Prolyl] Benzylamide]", "pIC50": 4.39},
      {"smiles": "CC[C@H](C)[C@H](NC(=O)[C@@H]1CCCN1CC(=O)NC1C2CC3CC(C2)CC1C3)C(=O)NCc1ccccc1", "note": "(stereo partly drawn) [Example 90, L-Isoleucine, N-[1-(Adamantan-2-ylcarbamoylmethyl)-L-Prolyl] Benzylamide]", "pIC50": "< 4.00"},
      {"smiles": "O=C(CC(NC(=O)[C@@H]1CCCN1CC(=O)C12CC3CC(CC(C3)C1)C2)c1ccccc1)NCc1ccccc1", "note": "(stereo partly drawn) [Example 63, L-β-Phenylalanine, N-[1-(2-Adamantan-1-yl-2-Oxoethyl)-L-Prolyl] Benzylamide]", "pIC50": 4.70},
      {"smiles": "CC[C@H](C)[C@H](NC(=O)[C@@H]1CCCN1CC(=O)C12CC3CC(CC(C3)C1)C2)C(=O)N[C@H](C)c1ccccc1", "note": "[Example 66, L-Isoleucine, N-[1-(2-Adamantan-1-yl-2-Oxoethyl)-L-Prolyl] alpha-(R)-methylbenzylamide]", "pIC50": 4.24},
      {"smiles": "CC[C@H](C)[C@H](NC(=O)[C@@H]1CCCN1CC(=O)O[C@H](c1ccccc1)C(C)C)C(=O)NCc1ccccc1", "note": "[Example 92, L-Isoleucine, N-[1-(2-(2-Methyl-1-(S)-Phenyl-1-Propoxy)-2-Oxoethyl)-L-Prolyl] Benzylamide]", "pIC50": 4.36}
    ]}
  ]
}
